How the values were obtained:
recombinant Plk1 = recombinant Plk1 (Homo sapiens, UniProt P53350); assay: In Vitro Plk1 Enzyme Assay (SPA, GST-Cdc25C phosphorylation); type: biochemical; conditions: ATP 64 nM, 90 minutes, read-out: IC50 (Plk1 enzyme inhibition)
[1] = system: human colon tumour cell line HT29; assay: Cellular Assay (phosphohistone H3 Ser10 mitotic marker, HT29); type: cell-based; conditions: HT-29, 24 h, HT29 cells, read-out: IC50 (cellular assay, phosphohistone H3)

Sequence of recombinant Plk1 (P53350 whole entry): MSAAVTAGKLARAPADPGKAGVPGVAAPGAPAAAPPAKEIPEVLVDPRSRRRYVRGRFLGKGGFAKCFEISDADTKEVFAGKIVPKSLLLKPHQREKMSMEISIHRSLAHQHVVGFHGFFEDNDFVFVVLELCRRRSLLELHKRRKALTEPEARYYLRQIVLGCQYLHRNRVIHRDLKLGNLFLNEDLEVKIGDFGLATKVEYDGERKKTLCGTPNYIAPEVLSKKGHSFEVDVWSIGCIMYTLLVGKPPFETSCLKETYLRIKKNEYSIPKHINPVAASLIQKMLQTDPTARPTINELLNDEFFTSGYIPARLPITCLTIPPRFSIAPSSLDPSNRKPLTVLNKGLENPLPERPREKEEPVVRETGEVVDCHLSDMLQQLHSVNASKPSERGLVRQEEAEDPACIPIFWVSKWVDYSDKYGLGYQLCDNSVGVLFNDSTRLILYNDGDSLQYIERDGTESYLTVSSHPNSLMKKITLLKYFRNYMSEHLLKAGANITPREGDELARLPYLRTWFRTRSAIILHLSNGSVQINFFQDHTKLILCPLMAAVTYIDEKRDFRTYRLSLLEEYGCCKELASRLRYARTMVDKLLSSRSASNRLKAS

SMILES | IC50 (recombinant Plk1) [nM] | IC50 [1] [nM]
COc1cc(C(=O)N[C@H]2[C@@H]3CN(C)C[C@@H]32)ccc1Nc1ncc2c(n1)N(C1CCCC1)CCC(=O)N2C [Example 64, 4-[(6-cyclopentyl-2-methyl-3-oxo-2,6,8,10-tetrazabicyclo[5.4.0]undeca-8,10,12-trien-9-yl)amino]-3-methoxy-N-[(1S,5R)-3-methyl-3-azabicyclo[3.1.0]hex-6-yl]benzamide] | < 300 | < 300
COc1cc(C(=O)NC(C)CN2CCCCC2)ccc1Nc1ncc2c(n1)N(C1CCCC1)CCC(=O)N2C (stereo not shown) [Example 73, 4-[(6-cyclopentyl-2-methyl-3-oxo-2,6,8,10-tetrazabicyclo[5.4.0]undeca-8,10,12-trien-9-yl)amino]-3-methoxy-N-[1-(1-piperidyl)propan-2-yl]benzamide] | < 300 | < 300
COc1cc(C(=O)NCCCN2CCN(C)CC2)ccc1Nc1ncc2c(n1)N(C1CCCC1)CCC(=O)N2C [Example 20, 4-[(6-cyclopentyl-2-methyl-3-oxo-2,6,8,10-tetrazabicyclo[5.4.0]undeca-8,10,12-trien-9-yl)amino]-3-methoxy-N-[3-(4-methylpiperazin-1-yl)propyl]benzamide] | < 300 | < 300
COc1cc(C(=O)NC2CCN(C(=O)OCc3ccccc3)CC2)ccc1Nc1ncc2c(n1)N(C1CCCC1)CCC(=O)N2C [Example 54, Benzyl 4-[[4-[(6-cyclopentyl-2-methyl-3-oxo-2,6,8,10-tetrazabicyclo[5.4.0]undeca-8,10,12-trien-9-yl)amino]-3-methoxy-benzoyl]amino]piperidine-1-carboxylate] | < 100000 | < 300
COc1cc(C(=O)NC2CC(C)(C)N(C)C(C)(C)C2)ccc1Nc1ncc2c(n1)N(C1CCCC1)CCC(=O)N2C [Example 72, 4-[(6-cyclopentyl-2-methyl-3-oxo-2,6,8,10-tetrazabicyclo[5.4.0]undeca-8,10,12-trien-9-yl)amino]-3-methoxy-N-(1,2,2,6,6-pentamethyl-4-piperidyl)benzamide] | < 300 | < 300
COc1cc(C(=O)NCCCN2CCCCC2)ccc1Nc1ncc2c(n1)N(C1CCCC1)CCC(=O)N2C [Example 69, 4-[(6-cyclopentyl-2-methyl-3-oxo-2,6,8,10-tetrazabicyclo[5.4.0]undeca-8,10,12-trien-9-yl)amino]-3-methoxy-N-[3-(1-piperidyl)propyl]benzamide] | < 300 | < 300
Cc1ccc(Oc2ccccc2Nc2ncc3c(n2)N(C2CCCC2)CCC(=O)N3C)cc1 [Example 159, 6-cyclopentyl-2-methyl-9-[[2-(4-methylphenoxy)phenyl]amino]-2,6,8,10-tetrazabicyclo[5.4.0]undeca-8,10,12-trien-3-one] | < 100000 | < 30000
COc1cc(C(=O)N[C@@H]2CC[C@H](C(=O)N(C)C)C2)ccc1Nc1ncc2c(n1)N(C1CCCC1)CCC(=O)N2C [Example 88, 4-[(6-cyclopentyl-2-methyl-3-oxo-2,6,8,10-tetrazabicyclo[5.4.0]undeca-8,10,12-trien-9-yl)amino]-N-[(1R,3S)-3-(dimethylcarbamoyl)cyclopentyl]-3-methoxy-benzamide] | < 100000 | < 300
CCN(CC)CCCCNC(=O)c1ccc(Nc2ncc3c(n2)N(C2CCCC2)CCC(=O)N3C)c(OC)c1 [Example 30, 4-[(6-cyclopentyl-2-methyl-3-oxo-2,6,8,10-tetrazabicyclo[5.4.0]undeca-8,10,12-trien-9-yl)amino]-N-(4-diethylaminobutyl)-3-methoxy-benzamide] | < 300 | < 300
COc1cc(C(=O)NCCN2CCN(C)CC2)ccc1Nc1ncc2c(n1)N(C1CCCC1)CCC(=O)N2C [Example 34, 4-[(6-cyclopentyl-2-methyl-3-oxo-2,6,8,10-tetrazabicyclo[5.4.0]undeca-8,10,12-trien-9-yl)amino]-3-methoxy-N-[2-(4-methylpiperazin-1-yl)ethyl]benzamide] | < 300 | < 300
COc1ccc(NC(=O)c2ccc(Nc3ncc4c(n3)N(C3CCCC3)CCC(=O)N4C)c(OC)c2)cc1 [Example 77, 4-[(6-cyclopentyl-2-methyl-3-oxo-2,6,8,10-tetrazabicyclo[5.4.0]undeca-8,10,12-trien-9-yl)amino]-3-methoxy-N-(4-methoxyphenyl)benzamide] | < 100000 | < 1000

The next lines start with the values.

IC50 (recombinant Plk1) [nM] | IC50 [1] [nM] | SMILES
< 300 | < 300 | COc1cc(C(=O)NC2CCN(CC3CC3)CC2)ccc1Nc1ncc2c(n1)N(C1CCCC1)CCC(=O)N2C [Example 319, 4-[(2-cyclopentyl-6-methyl-5-oxo-2,6,9,11-tetrazabicyclo[5.4.0]undeca-7,9,11-trien-10-yl)amino]-N-[1-(cyclopropylmethyl)-4-piperidyl]-3-methoxy-benzamide]
< 1000 | < 30000 | CN(C)CC(C)(C)CNC(=O)c1ccc(Nc2ncc3c(n2)N(c2ccccc2)CCC(=O)N3C)cc1 [Example 223, N-(3-dimethylamino-2,2-dimethyl-propyl)-4-[(2-methyl-3-oxo-6-phenyl-2,6,8,10-tetrazabicyclo[5.4.0]undeca-8,10,12-trien-9-yl)amino]benzamide]
< 1000 | < 30000 | COc1cc(C(=O)NC2CCCCC2)ccc1Nc1ncc2c(n1)N(C1CCN(C)CC1)CCC(=O)N2C [Example 233, N-cyclohexyl-3-methoxy-4-[[2-methyl-6-(1-methyl-4-piperidyl)-3-oxo-2,6,8,10-tetrazabicyclo[5.4.0]undeca-7,9,11-trien-9-yl]amino]benzamide]
< 1000 | < 300 | CCOc1cc(C(=O)NC2CCN(C)CC2)ccc1Nc1ncc2c(n1)N(C1CCCC1)CCC(=O)N2C [Example 200, 4-[(6-cyclopentyl-2-methyl-3-oxo-2,6,8,10-tetrazabicyclo[5.4.0]undeca-8,10,12-trien-9-yl)amino]-3-ethoxy-N-(1-methyl-4-piperidyl)benzamide]
< 300 | < 300 | COCCN1CC[C@@H](NC(=O)c2ccc(Nc3ncc4c(n3)N(C3CCCC3)CCC(=O)N4C)c(OC)c2)C1 [Example 328, 4-[(2-cyclopentyl-6-methyl-5-oxo-2,6,9,11-tetrazabicyclo[5.4.0]undeca-7,9,11-trien-10-yl)amino]-3-methoxy-N-[(3R)-1-(2-methoxyethyl)pyrrolidin-3-yl]benzamide]
< 100000 | < 30000 | CN1C(=O)CCN(C2CCCC2)c2nc(Nc3cccc(OCCN4CCOCC4)c3)ncc21 [Example 180, 6-cyclopentyl-2-methyl-9-[[3-(2-morpholin-4-ylethoxy)phenyl]amino]-2,6,8,10-tetrazabicyclo[5.4.0]undeca-8,10,12-trien-3-one]
< 300 | < 300 | CN1CCC(NC(=O)c2ccc(Nc3ncc4c(n3)N(C3CCCC3)CCC(=O)N4C)cc2F)CC1 [Example 189, 4-[(6-cyclopentyl-2-methyl-3-oxo-2,6,8,10-tetrazabicyclo[5.4.0]undeca-8,10,12-trien-9-yl)amino]-2-fluoro-N-(1-methyl-4-piperidyl)benzamide]
< 1000 | < 30000 | CC(=O)c1cccc(Nc2ncc3c(n2)N(C2CCCC2)CCC(=O)N3C)c1 [Example 165, 9-[(3-acetylphenyl)amino]-6-cyclopentyl-2-methyl-2,6,8,10-tetrazabicyclo[5.4.0]undeca-8,10,12-trien-3-one]
< 300 | < 300 | CCN1CCC(NC(=O)c2ccc(Nc3ncc4c(n3)N(C3CCCC3)CC3(CC3)C(=O)N4C)c(Cl)c2)CC1 [Example 382, 3-chloro-4-(9′-cyclopentyl-5′-methyl-6′-oxo-5′,6′,8′,9′-tetrahydrospiro[cyclopropane-1,7′-pyrimido[5,4-b][1,4]diazepine]-2′-ylamino)-N-(1-ethylpiperidin-4-yl)benzamide]
< 100000 | < 300 | CN1CCC(NC(=O)c2ccc(Nc3ncc4c(n3)N(C3CCCC3)CCC(=O)N4C)c(OC(F)(F)F)c2)CC1 [Example 199, 4-[(6-cyclopentyl-2-methyl-3-oxo-2,6,8,10-tetrazabicyclo[5.4.0]undeca-8,10,12-trien-9-yl)amino]-N-(1-methyl-4-piperidyl)-3-(trifluoromethoxy)benzamide]
< 100000 | < 30000 | CN1CCC(NC(=O)c2coc(Nc3ncc4c(n3)N(C3CCCC3)CCC(=O)N4C)n2)CC1 [Example 265, 2-[(6-cyclopentyl-2-methyl-3-oxo-2,6,8,10-tetrazabicyclo[5.4.0]undeca-8,10,12-trien-9-yl)amino]-N-(1-methyl-4-piperidyl)1,3-oxazole-4-carboxamide]
< 1000 | < 30000 | CC(C)N1CCC(=O)N(C)c2cnc(Nc3ccc(C(=O)NCCN4CCOCC4)cc3Cl)nc21 [Example 228, 3-chloro-4-[(2-methyl-3-oxo-6-propan-2-yl-2,6,8,10-tetrazabicyclo[5.4.0]undeca-7,9,11-trien-9-yl)amino]-N-(2-morpholin-4-ylethyl)benzamide]
< 100000 | < 30000 | CN1CCC(NC(=O)c2ccc(Nc3ncc4c(n3)N(c3ccccc3)CCC(=O)N4)c(Cl)c2)CC1 [Example 248, 3-chloro-N-(1-methyl-4-piperidyl)-4-[(3-oxo-6-phenyl-2,6,8,10-tetrazabicyclo[5.4.0]undeca-8,10,12-trien-9-yl)amino]benzamide]
< 300 | < 300 | CN(C)CCNC(=O)c1ccc(Nc2ncc3c(n2)N(C2CCCC2)CCC(=O)N3C)c(Cl)c1 [Example 315, 3-chloro-4-[(2-cyclopentyl-6-methyl-5-oxo-2,6,9,11-tetrazabicyclo[5.4.0]undeca-7,9,11-trien-10-yl)amino]-N-(2-dimethylaminoethyl)benzamide]
< 300 | < 300 | CN(C)CCCNC(=O)c1ccc(Nc2ncc3c(n2)N(C2CCCC2)CCC(=O)N3C)c(Cl)c1 [Example 317, 3-chloro-4-[(2-cyclopentyl-6-methyl-5-oxo-2,6,9,11-tetrazabicyclo[5.4.0]undeca-7,9,11-trien-10-yl)amino]-N-(3-dimethylaminopropyl)benzamide]
